Test results published in the supplement of paper PMC10307832.

Experiments:
Test in all cases: relative viability (nuclei count vs DMSO), 5 days (fraction); higher = more cells survive
[1] = compound: Nc1nc(Nc2ccc3c(c2)CC[C@@H](N2CCCC2)CC3)nn1-c1cc2c(nn1)-c1ccccc1CCC2 [Bemcentinib] + Cc1cc(Nc2cc(N3CCN(C)CC3)nc(Sc3ccc(NC(=O)C4CC4)cc3)n2)n[nH]1 [Tozasertib] (partner 0.1 µM)
Method in brief: (§1)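 One day after seeding in 1536-well plates, lung cancer cell lines were dosed by pin tool. Dosing was either single-drug or a fixed anchor-drug dose plus five library-drug doses (not always all listed) in √10 steps. After 5 days, nuclei were stained in one fix-and-stain step and counted on 4× images, and relative viability is the nuclei count of treated wells over that of vehicle wells, given as the median of duplicate plates.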

[2] = compound: CC1=CC=C(C=C1)C(=O)CN2C3=C(CCCC3)SC2=N [Pifithrin_alpha] + Nc1nc2[nH]cc(CCc3ccc(C(=O)N[C@@H](CCC(=O)O)C(=O)O)cc3)c2c(=O)[nH]1 [Pemetrexed] (partner 0.2 µM)
Method in brief: as §1

[3] = compound: CC1=CC=C(C=C1)C(=O)CN2C3=C(CCCC3)SC2=N [Pifithrin_alpha] + O=C(CCCCCCC(=O)Nc1ccccc1)NO [Vorinostat] (partner 1 µM)
Method in brief: as §1

[4] = compound: Nc1nc(Nc2ccc3c(c2)CC[C@@H](N2CCCC2)CC3)nn1-c1cc2c(nn1)-c1ccccc1CCC2 [Bemcentinib] + O=C(c1cc(Cc2n[nH]c(=O)c3ccccc23)ccc1F)N1CCN(C(=O)C2CC2)CC1 [Olaparib] (partner 8 µM)
Method in brief: as §1

Cell Line | relative viability ([1]; first compound 0.04 µM) | relative viability ([1]; first compound 0.1265 µM) | relative viability ([1]; first compound 0.4 µM) | relative viability ([1]; first compound 1.265 µM) | relative viability ([1]; first compound 4 µM) | relative viability ([2]; first compound 1 µM) | relative viability ([2]; first compound 3.162 µM) | relative viability ([2]; first compound 10 µM) | relative viability ([2]; first compound 31.62 µM) | relative viability ([2]; first compound 100 µM) | relative viability ([3]; first compound 1 µM) | relative viability ([3]; first compound 3.162 µM) | relative viability ([3]; first compound 10 µM) | relative viability ([3]; first compound 31.62 µM) | relative viability ([3]; first compound 100 µM) | relative viability ([4]; first compound 0.04 µM) | relative viability ([4]; first compound 0.1265 µM) | relative viability ([4]; first compound 0.4 µM) | relative viability ([4]; first compound 1.265 µM) | relative viability ([4]; first compound 4 µM)
COR-L 105 | 0.306 | 0.358 | 0.317 | 0.336 | 0.345 | 1.13 | 1 | 0.951 | 0.926 | 1.03 | 0.844 | 0.665 | 0.699 | 0.608 | 0.633 | 0.635 | 0.762 | 0.752 | 0.737 | 0.64
NCI-H838 | 0.281 | 0.268 | 0.264 | 0.262 | 0.291 | 0.194 | 0.242 | 0.272 | 0.235 | 0.287 | 0.593 | 0.591 | 0.555 | 0.567 | 0.525 | 0.795 | 0.933 | 0.915 | 0.864 | 0.774
NCI-H2170 | 0.73 | 0.764 | 0.763 | 0.658 | 0.644 | 0.279 | 0.296 | 0.3 | 0.234 | 0.255 | 0.791 | 0.873 | 0.837 | 0.681 | 0.842 | 0.563 | 0.661 | 0.567 | 0.583 | 0.589
EKVX | 0.39 | 0.468 | 0.39 | 0.437 | 0.374 | 0.514 | 0.352 | 0.37 | 0.266 | 0.316 |  | 0.597 | 0.549 | 0.636 | 0.572 | 0.88 | 0.852 | 0.829 | 1.09 | 0.939
RERF-LC-KJ | 0.557 | 0.531 | 0.485 | 0.553 | 0.466 | 0.437 | 0.445 | 0.507 | 0.452 | 0.396 | 0.329 | 0.627 | 0.547 | 0.448 | 0.488 | 0.873 | 0.928 | 0.896 | 0.976 | 0.782
LK-2 | 0.166 | 0.164 | 0.19 | 0.178 | 0.168 | 0.188 | 0.288 | 0.244 |  | 0.327 | 0.29 | 0.257 | 0.255 | 0.256 | 0.353 | 0.694 | 0.756 | 0.837 | 0.839 | 0.677
NCI-H1666 | 0.605 | 0.619 | 0.621 | 0.594 | 0.595 | 0.876 | 0.784 | 0.767 | 0.617 | 0.714 | 0.96 | 0.962 | 0.723 | 0.771 | 0.793 | 0.742 | 0.887 | 0.731 | 0.713 | 0.713
LCLC-103H | 0.442 | 0.484 | 0.539 | 0.478 | 0.474 | 0.46 | 0.433 | 0.436 | 0.458 | 0.493 | 0.565 | 0.884 | 0.782 | 0.733 | 0.761 | 0.802 | 0.811 | 0.796 | 0.86 | 0.783
NCI-H1755 | 0.64 | 0.742 | 0.626 | 0.607 | 0.613 | 0.417 | 0.445 | 0.381 | 0.342 | 0.446 | 0.773 | 0.853 | 0.694 | 0.599 | 0.724 | 0.92 | 0.868 | 0.929 | 0.951 | 0.935
NCI-H520 | 0.526 | 0.379 | 0.411 | 0.452 | 0.484 | 0.721 | 0.741 | 0.727 | 0.461 | 0.699 | 0.641 | 0.954 | 0.716 | 0.678 | 0.772 | 0.394 | 0.335 | 0.343 | 0.387 | 0.415
PC-14 | 0.584 | 0.706 | 0.538 | 0.645 | 0.601 | 0.143 | 0.121 | 0.133 | 0.0962 | 0.0885 | 0.626 | 0.77 | 0.802 | 0.414 | 0.625 | 0.279 | 0.433 | 0.235 | 0.225 | 0.187
NCI-H2405 | 0.733 | 0.783 | 0.702 | 0.74 | 0.671 |  | 0.86 | 0.957 | 0.802 | 0.971 |  | 0.931 | 0.743 | 0.734 | 0.785 | 0.83 | 0.938 | 0.959 | 0.975 | 0.91
NCI-H1395 | 0.759 | 0.763 | 0.782 | 0.739 | 0.753 |  | 0.897 | 0.907 |  | 0.908 |  | 0.662 | 0.723 |  | 0.661 |  | 0.474 | 0.462 | 0.497 | 0.463
NCI-H596 | 0.87 | 1.05 | 1.14 | 0.94 | 0.799 | 0.523 | 0.468 | 0.513 | 0.498 | 0.483 | 0.594 | 0.603 | 0.603 | 0.585 | 0.65 | 0.605 | 0.749 | 0.759 | 0.613 | 0.773
